Data on 26 compounds can be found in ChEMBL document CHEMBL4765408, “Design and synthesis of benzylidenecyclohexenones as TrxR inhibitors displaying high anticancer activity and inducing ROS, apoptosis, and autophagy” (Eur J Med Chem, 2020).

For experiment [1], the system named is MDA-MB-231. As to the kind of experiment: Antiproliferative activity against human MDA-MB-231 cells after 72 hrs by sulforhodamine B assay. Format: functional, cell-based. As to conditions: MDA-MB-231, 72 h.
Another experiment deals with MCF7. The experiment in a line: Antiproliferative activity against human MCF7 cells after 72 hrs by sulforhodamine B assay. The experiment is classed as functional, cell-based. The following applies: MCF7, 72 h. (The SRB assay estimates cell density from bound dye.)
Another experiment relates to A549. The experiment in a line: Antiproliferative activity against human A549 cells after 72 hrs by sulforhodamine B assay. Format: functional, cell-based. As to conditions: A549, 72 h.
The test system of a further experiment is KB. As to the kind of experiment: Antiproliferative activity against human KB cells after 72 hrs by sulforhodamine B assay. Format: functional, cell-based.
Experiment [2] can be described thus: Antiproliferative activity against human KB-VIN cells after 72 hrs by sulforhodamine B assay. As to conditions: KBVIN. The experiment is classed as functional, cell-based.
Experiment [3] in a line: Inhibition of TrxR in human MDA-MB-231 cells measured after 72 hrs by colorimetric method. The experiment is classed as cell-based.
The subject of experiment [4] is MDA-MB-231. As to the kind of experiment: Induction of reactive oxygen species generation in human MDA-MB-231 cells measured after 24 hrs by DCFH-DA probe based flow cytometry. The experiment is classed as functional, cell-based. In general terms: A flow cytometer gives signals particle by particle.
A short description of experiment [5]: Selectivity ratio of IC50 for human A549 cells to IC50 for human MDA-MB-231 cells. The experiment is classed as functional.

Active and inactive are the calls of the source. No cut-off for these calls is given here.

The term IC50 denotes the midpoint of a concentration-inhibition curve. Low values mean higher potency, high ones lower potency.

`O=C1C=CCC/C1=C\c1cnc2ccccc2c1`: the IC50 came to 640 nM in the experiment with MDA-MB-231 [1]; 5250 nM in the experiment on MCF7; 4450 nM in the experiment with A549; 920 nM in the experiment on KB; 5380 nM in experiment [2].
The corresponding values for `COc1cc(/C=C2\CCC=C(I)C2=O)cc(OC)c1OC` are 670 nM, 5330 nM, 4860 nM, 3670 nM and 5310 nM.
In the same order, the values of `COc1ccc(/C=C2\CCC=CC2=O)cc1` are 1620 nM, 2570 nM, 1460 nM, 1560 nM and 2930 nM.
The corresponding values for `O=C1C=CCC/C1=C\c1ccc(-c2ccccc2)cc1` are 680 nM, 4970 nM, 3670 nM, 2320 nM and 4840 nM.
With `O=C1C=CCC/C1=C\c1ccc2c(c1)OCO2`, the concentration for half-maximal inhibition (IC50) with MDA-MB-231 [1] is 1650 nM; in the experiment with MCF7, 2280 nM; with A549 it was 1520 nM; in the experiment on KB, 1660 nM; in experiment [2], 2200 nM.
The corresponding values for `COc1cc(/C=C2\CCC=CC2=O)cc(OC)c1` are 600 nM, 4620 nM, 4740 nM, 3630 nM and 4870 nM.
With `COc1ccc(/C=C2\CCC=CC2=O)cc1[N+](=O)[O-]`, the half-maximal inhibitory concentration (IC50) stood at 590 nM in the experiment on MDA-MB-231 [1]; 1680 nM in the experiment with MCF7; 1480 nM with A549; 1360 nM in the experiment on KB; 1630 nM in experiment [2]; 630 nM in experiment [3]. Moreover, the result in the experiment with MDA-MB-231 [4] was Active.
As to `COc1cc(/C=C2\CN(C(=O)OCc3ccccc3)C=CC2=O)cc(OC)c1OC`, the IC50 is 24200 nM with MDA-MB-231 [1], over 25000 nM with MCF7 and 21300 nM in the experiment on A549.
The corresponding values for `COc1cc(/C=C2\CN(S(=O)(=O)c3ccccc3)C=CC2=O)cc(OC)c1OC` are 23300 nM, over 25000 nM and 22400 nM.
Take `COc1cc(/C=C2\CCC=CC2=O)cc(OC)c1OC`: the IC50 in the experiment on MDA-MB-231 [1] came to 670 nM; with MCF7 it was 5260 nM; in the experiment on A549, 4250 nM; in the experiment with KB, 880 nM; in experiment [2], 4750 nM; in experiment [3], 110 nM. Moreover, the result with MDA-MB-231 [4] was Active.
As to `COc1ccc(/C=C2\CCC=CC2=O)cc1OC`, the IC50 with MDA-MB-231 [1] stood at 640 nM; with MCF7, 5230 nM; with A549, 4680 nM; in the experiment with KB, 900 nM; in experiment [2], 5380 nM.
With `COc1ccc(/C=C2\CCC=CC2=O)c(C)c1`, the 50% inhibitory concentration (IC50) with MDA-MB-231 [1] amounted to 1070 nM; in the experiment on MCF7 it was 1840 nM; in the experiment with A549, 1550 nM; with KB, 1310 nM; in experiment [2], 1590 nM; in experiment [3] it was 460 nM. The outcome in the experiment with MDA-MB-231 [4] was Active.
For the compound `COc1cc(/C=C2\CNC=CC2=O)cc(OC)c1OC`, the IC50 with MDA-MB-231 [1], in the experiment with MCF7 and in the experiment with A549 was over 25000 nM throughout.
Consider `COc1cc(/C=C2\CCC=CC2=O)cc(OC)c1O`, for which the IC50 with MDA-MB-231 [1] was determined as 1610 nM; in the experiment on MCF7, 2180 nM; in the experiment with A549 it was 1540 nM; in the experiment with KB, 1520 nM; in experiment [2] it was 3100 nM.
Consider `COc1cccc(/C=C2\CCC=CC2=O)c1OC`, for which the IC50 in the experiment with MDA-MB-231 [1] came to 610 nM; in the experiment with MCF7, 4710 nM; in the experiment on A549 it was 5090 nM; in the experiment with KB, 3850 nM; in experiment [2], 5220 nM. Moreover, in experiment [5], the “Ratio IC50” value was 8.
As for `COc1cc(OC)c(/C=C2\CCC=CC2=O)c(OC)c1`, the 50% inhibitory concentration (IC50) was determined as 5070 nM in the experiment on MDA-MB-231 [1]; 9080 nM in the experiment with MCF7; 4700 nM in the experiment with A549; 5820 nM in the experiment on KB; 6450 nM in experiment [2].
Turning to `O=C1C=CCC/C1=C\c1ccccc1OC(F)(F)F`, the midpoint of inhibition with MDA-MB-231 [1], the IC50, lay at 1010 nM.
Take `CCOc1ccc(/C=C2\CCC=CC2=O)cc1OC`: the IC50 with MDA-MB-231 [1] came out at 600 nM; in the experiment on MCF7, 3950 nM; in the experiment with A549 it was 3640 nM; in the experiment on KB it was 1280 nM; in experiment [2], 4800 nM.
In the case of `COc1cc(/C=C2\CN(S(C)(=O)=O)C=CC2=O)cc(OC)c1OC`, the half-maximal inhibitory concentration (IC50) in the experiment with MDA-MB-231 [1] was determined as 15900 nM; in the experiment on MCF7 it was 17600 nM; in the experiment with A549, 18700 nM.
In the case of `COc1cc(/C=C2\CN(S(=O)(=O)c3ccc(C)cc3)C=CC2=O)cc(OC)c1OC`, the 50% inhibitory concentration (IC50) with MDA-MB-231 [1] amounted to 22200 nM; in the experiment on MCF7, 19200 nM; with A549 it was 20200 nM.
In the case of `COc1cccc(/C=C2\CCC=CC2=O)c1`, the half-inhibitory concentration (IC50) in the experiment on MDA-MB-231 [1] is 1060 nM; in the experiment with MCF7, 2030 nM; in the experiment with A549, 1480 nM; in the experiment on KB, 1550 nM; in experiment [2], 2570 nM.
With `O=C1C=CCC/C1=C\c1cccc(OC(F)(F)F)c1`, in the experiment with MDA-MB-231 [1], it took 820 nM to reach half-maximal inhibition (IC50).
For the compound `O=C1C=CCC/C1=C\c1cccnc1`, the IC50 is 1050 nM with MDA-MB-231 [1]; 2030 nM in the experiment with MCF7; 1510 nM with A549; 1520 nM in the experiment with KB; 2810 nM in experiment [2].
Regarding `Cn1cc(/C=C2\CCC=CC2=O)c2ccccc21`, the half-inhibitory concentration (IC50) in the experiment on MDA-MB-231 [1] stood at 3370 nM; with MCF7, 6040 nM; with A549 it was 4920 nM; with KB, 4420 nM; in experiment [2], 4960 nM.
The corresponding values for `COc1cc(/C=C2\CCC=CC2=O)cc2ccccc12` are 1630 nM, 3600 nM, 1630 nM, 1500 nM and 2620 nM.
The corresponding values for `CC(=O)n1cc(/C=C2\CCC=CC2=O)c2ccccc21` are 930 nM, 5440 nM, 4830 nM, 4460 nM and 5050 nM.
